Source: patent US6121297A, “Cyanoguanidines as cell proliferation inhibitors” (Leo Pharmaceutical Products Ltd. A/S, priority 1997, dated 2000)
Blank lines part the entries; values can stand above or below the compound they belong to.

How the values were obtained:
Type in all cases: cell-based
[1] = tested on: human small cell lung carcinoma (NYH); experiment: Inhibition of tumour cell proliferation in vitro, NYH ([3H]thymidine incorporation); conditions: human NYH cells, 24 hours, DNA synthesis by [3H]thymidine incorporation
Experimental: (§1) The inhibition of tumour cell proliferation was studied using different types of human cancer cell lines. The cell lines under investigation were small cell lung carcinoma (NYH), non small cell lung carcinoma (NCI-H460), and breast cancer (MCF-7) using the following general procedure:
(§2) The cells were cultured in vitro for 24 hours in the presence of the compound under investigation. DNA synthesis was measured by incorporation of [3H]thymidine, and the median inhibitory concentrations (IC50) of the compounds were calculated.

[2] = tested on: human breast cancer (MCF-7); experiment: Inhibition of tumour cell proliferation in vitro, MCF-7 ([3H]thymidine incorporation); conditions: MCF7, human MCF-7 cells, 24 hours, DNA synthesis by [3H]thymidine incorporation
Experimental: as §1, §2

[3] = tested on: human non small cell lung cancer (NCI-H460); experiment: Inhibition of tumour cell proliferation in vitro, NCI-H460 ([3H]thymidine incorporation); conditions: human NCI-H460 cells, 24 hours, DNA synthesis by [3H]thymidine incorporation
Experimental: as §1, §2

SMILES: N#CNC(=Nc1ccncc1)NCCCCCCCCCCCOc1ccccc1 [Example No. 1, N-Cyano-N'-(11-phenoxyundecyl)-N"-4-pyridylguanidine]
IC50 [1]: 4.5 nM
IC50 [2]: 21 nM

SMILES: N#CNC(=Nc1ccncc1)NCCCCCCCCCCOc1ccccc1 [Example No. 3, N-Cyano-N'-(10-phenoxydecyl)-N"-4pyridylguanidine]
IC50 [3]: 49 nM
IC50 [1]: 5.9 nM
IC50 [2]: 13 nM

SMILES: N#CN=C(NCCCCOc1ccccc1)Nc1ccncc1 [Prior art A, NCyano-N(4-phenoxybutyl)-N4-pyridylguanidine, reference compound]
IC50 [3]: > 1000 nM
IC50 [1]: 380 nM
IC50 [2]: 920 nM

Continued by falling IC50 [1], values first:

IC50 [3]: 67 nM
IC50 [1]: 45 nM
IC50 [2]: 250 nM
SMILES: N#CN=C(NCCCCCOc1ccccc1)Nc1ccncc1 [Prior art B, NCyano-N(5-phenoxypentyl)-N4-pyridylguanidine, reference compound]

IC50 [3]: 43 nM
IC50 [1]: 5.3 nM
IC50 [2]: 18 nM
SMILES: N#CNC(=Nc1ccncc1)NCCCCCCCCCOc1ccccc1 [Example No. 4, N-Cyano-N'-(9-phenoxynonyl)-N"-4-pyridylguanidine]
